Data: BindingDB's records for patent US10836741 (Valo Early Discovery, Inc., 2020)

Target: T1, Ubiquitin carboxyl-terminal hydrolase 7 [208-1102] (Human, UniProt Q93009)
T1 construct: 208-1102
Assay: USP7 Assay A (Ubitquin-Rhodamine 110 Assay)
Experimental: Each assay was performed in a final volume of 15 μL in assay buffer containing 20 mM Tris-HCl (pH 8.0, (1M Tris-HCl, pH 8.0 solution; Corning 46-031-CM)), 1 mM GSH (L-Glutathione reduced; Sigma # G4251), 0.03% BGG (0.22 μM filtered, Sigma, # G7516-25G), and 0.01% Triton X-100 (Sigma, # T9284-10L). Nanoliter quantities of either an 8-point or 10-point, 3-fold serial dilution in DMSO was pre-dispensed into assay plates (Perkin Elmer, ProxiPlate-384 F Plus, #6008269) for a final test concentration range of either 25 μM to 11 nM or 25 μM to 1.3 nM, respectively. The final concentration of the enzyme (USP7, construct USP7 (208-1102) 6*His, Viva Biotech) in the assay was 62.5 pM. Final substrate (Ub-Rh110; Ubiquitin-Rhodamine 110, R&D Systems # U-555) concentration was 25 nM with [Ub-Rh110]<<Km. 5 μL of 2× enzyme was added to assay plates (pre-stamped with compound) preincubated with USP7 for 30 min and then 5 μL of 2×Ub-Rh110 was added to assay plates. Plates were incubated stacked for 20 min at room temperature before 5 μL of stop solution (final concentration of 10 mM citric acid in assay buffer (Sigma, #251275-500G)). Fluorescence was read on the Envision (Excitation at 485 nm and Emission at 535 nm; Perkin Elmer) or on the PheraSTAR (Excitation at 485 nm and Emission at 535 nm; BMG Labtech).

T1 sequence (Q93009 208-1102): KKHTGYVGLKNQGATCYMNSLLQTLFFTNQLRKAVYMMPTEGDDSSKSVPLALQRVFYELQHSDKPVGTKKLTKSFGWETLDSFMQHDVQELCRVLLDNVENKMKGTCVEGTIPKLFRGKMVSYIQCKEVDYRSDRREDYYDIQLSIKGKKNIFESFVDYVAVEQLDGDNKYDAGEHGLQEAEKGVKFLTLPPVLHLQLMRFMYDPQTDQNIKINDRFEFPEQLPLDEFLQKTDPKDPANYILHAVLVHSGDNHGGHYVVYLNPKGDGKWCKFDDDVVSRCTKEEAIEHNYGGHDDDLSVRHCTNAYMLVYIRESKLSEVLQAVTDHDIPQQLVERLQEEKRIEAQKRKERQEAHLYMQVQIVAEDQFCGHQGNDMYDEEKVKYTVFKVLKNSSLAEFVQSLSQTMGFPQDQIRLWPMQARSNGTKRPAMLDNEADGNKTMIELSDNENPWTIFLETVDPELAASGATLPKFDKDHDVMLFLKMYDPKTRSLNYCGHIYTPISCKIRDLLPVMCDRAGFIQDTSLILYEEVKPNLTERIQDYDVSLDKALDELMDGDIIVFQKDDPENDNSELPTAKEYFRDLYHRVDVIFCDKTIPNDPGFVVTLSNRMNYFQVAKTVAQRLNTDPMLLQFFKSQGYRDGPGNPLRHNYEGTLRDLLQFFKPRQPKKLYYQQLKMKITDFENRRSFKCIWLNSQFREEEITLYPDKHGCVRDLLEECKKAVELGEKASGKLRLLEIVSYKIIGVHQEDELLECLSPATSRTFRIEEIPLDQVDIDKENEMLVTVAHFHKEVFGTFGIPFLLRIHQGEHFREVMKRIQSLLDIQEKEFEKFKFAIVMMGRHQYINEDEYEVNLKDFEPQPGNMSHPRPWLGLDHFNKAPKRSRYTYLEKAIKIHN

COc1cccc2c(=O)n(CC3(O)CCN(C(=O)CC(C)c4ccccc4)CC3)cnc12 (stereo unspecified) [US10836741, Example I-6]
IC50: < 200 nM
